Measurements from patent US11472812B2, “Anti-cancer compounds targeting Ral GTPases and methods of using the same” (The Regents of the University of Colorado, a body corporate, priority 2014, dated 2022).
Entries after “also recorded” stand apart in the source; their conditions may differ.

What was measured:
RalA [1] = molecular target: T1, RalA (Homo sapiens, UniProt P11233); assay: Ral activity pull-down assay with RalBP1 agarose beads in cells; format: cell-based; design: endogenous in cells; host or cells: H2122 and H358 human lung cancer cells; settings: H2122 and H358 cells, 10 μM compound, 3 hrs
T1 sequence (P11233 1-206): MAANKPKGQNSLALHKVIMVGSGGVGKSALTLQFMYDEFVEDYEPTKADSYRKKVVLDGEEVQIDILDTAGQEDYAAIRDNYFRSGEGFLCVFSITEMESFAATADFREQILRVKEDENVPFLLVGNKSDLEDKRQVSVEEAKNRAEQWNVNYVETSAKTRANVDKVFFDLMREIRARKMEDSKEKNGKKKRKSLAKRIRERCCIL
Experimental: (§1) FIGS. 6A-6E show the cellular uptake of Ral inhibitors in vitro. H2122 human lung cancer cells were treated with 10 μM of RBC8 (FIG. 6A), BQU57 (FIG. 6B), BQU85 (FIG. 6C), and RBC5 (FIG. 6D). Cells were collected at different time points (1, 5, 15, 30 and 60 min), and drug concentrations in cells determined using LC/MS-MS methods (n=3 for each time point). […] Cells were grown under anchorage-independent conditions and treated with 10 μM compounds for 3 hours. Ral activity in cell lysates were then determined using the pull down assay with RalBP1 agarose beads. Data represent three independent experiments.
(§2) To confirm that Ral activity is inhibited in H2122 and H358 cells by drug treatment, we performed the Ral activity pull-down assay. Cells were treated with drug for 3 hrs, collected and Ral activity measured using the RalBP1 pull-down assay kit (Millipore #14-415). RBC8 and BQU57 but not RBC5 inhibited both RalA and RalB activity in both cell lines (FIG. 6E).

RalB [2] = molecular target: T2, RalB (Homo sapiens, UniProt P11234); assay: as above; format: cell-based; design: endogenous in cells; host or cells: H2122 and H358 human lung cancer cells; settings: H2122 and H358 cells, 10 μM compound, 3 hrs
T2 sequence (P11234 1-206): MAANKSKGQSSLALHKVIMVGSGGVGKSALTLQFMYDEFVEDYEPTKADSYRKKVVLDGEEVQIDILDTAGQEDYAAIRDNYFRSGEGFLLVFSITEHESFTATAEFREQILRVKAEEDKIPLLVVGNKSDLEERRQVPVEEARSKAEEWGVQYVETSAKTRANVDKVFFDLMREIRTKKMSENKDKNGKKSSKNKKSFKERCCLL
Experimental: as §1, §2

RalA [3] = molecular target: T1, RalA; assay: RalBP1 pull-down of Ral activity in H2122 xenograft tumors; format: in vivo; settings: single i.p. dose, RBC8 50 mg/kg or BQU57 10/20/50 mg/kg, tumors collected 3 h post-dose
Experimental: (§3) Finally, we evaluated Ral GTPase activity in vivo in the H2122 xenografts. Nude mice were inoculated with 5×10^6 cells H2122 cells s.c. at four sites per mice. Tumor size reached an average of 250 mm^3 in ten days, at which time mice were given a signal i.p. dose of RBC8 or BQU57 at various concentrations. Tumors were then collected 3 h after injection of RBC8 or BQU57. RalA and RalB activity in tumor samples were then measured using the RalBP1 pull-down assay kit (Millipore #14-415). Ras and RhoA activity in tumor samples were measured using the respective pull-down assay kits. All the activity assays used western blotting as the final readout. For quantification of the immunoblots, the bands on each blot were first normalized to their respective internal control (10 ng of recombinant Ral, Ras, or […] protein run in the last lane) the numbers were then compared across different blots, each of which represented one treatment condition. Mice bearing H2122 tumors (median size 250 mm^3) were given a single intraperitoneal dose of RBC8 (50 mg/kg) or BQU57 (10/20/50 mg/kg) and tumors collected 3 h post-dose.

RalB [4] = molecular target: T2, RalB; assay: as above; format: in vivo; settings: single i.p. dose, RBC8 50 mg/kg or BQU57 10/20/50 mg/kg, tumors collected 3 h post-dose
Experimental: as §3

[5] = tested on: H2122 human lung cancer cells; assay: H2122 xenograft tumor growth; format: in vivo, nude mice; settings: i.p. daily except weekends, initiated 24 h after inoculation; RBC8 50 mg/kg/d; BQU57 and BQU85 5, 10, 20, and 50 mg/kg/d
Experimental: We next determined compound entry into tumor tissue. To do so, athymic nude mice (Ncr nu/nu; National Cancer Institute, Fredrick, Md.) were received at 5 to 6 weeks of age and were allowed to acclimate for 2 weeks in sterile micro isolator cages with constant temperature and humidity. Mice had free access to food and water. H2122 cells in log-phase growth were harvested on the day of use. Cells were suspended in un-supplemented RPMI 1640 medium and 0.1 mL (2×10^5 cells) was injected s.c. four sites per mice. For H358 xenografts, cells (5×10^6) were mixed with matrigel (20% final concentration) and 0.1 mL was inoculated s.c. per site. After cell inoculation, mice were monitored daily, weighed twice weekly and caliper measurements begun when tumors visible. Tumor volume was calculated by (L×W2)/2, where L is longer measurement of tumor and W is the smaller tumor measurement. Drug treatment started the day after inoculation. Compounds were dissolved in DMSO and injected i.p. daily except weekends at 10/20/50 mg/kg. […] The effect of the Ral inhibitors on xenograft tumor growth was then tested in nude mice. Mice were inoculated subcutaneously with H2122 human lung cancer cells and treated intraperitoneally with 50 mg/kg/d (except weekends) of RBC8 24 h post inoculation.

[6] = tested on: H2122 human lung cancer cells; assay: Cellular uptake, LC/MS-MS of cell lysates; format: in vitro ADME; settings: 10 μM, 1-60 min
Experimental: To quantitate how well the test compounds get into cells, H2122 human lung cancer cells were seeded at 3×10^5 cells per well in 6-well plates and let sit for 16 h. Compounds (10 μM) were individually dosed in triplicate; cells were then collected into 500 μl ice-cold ACN:MeOH:H2O (1:1:1) at different time points (1, 5, 15, 30 and 60 min). Drug concentrations in cell lysates were then determined using LC/MS-MS methods as described with respect to the pharmacokinetic and pharmacodynamic studies in mice, described in detail in Example 5, below.

Row | SMILES | inhibition of RalA activity (RalA [1]) | inhibition of RalB activity (RalB [2]) | inhibition of RalA activity in tumors (RalA [3]) | inhibition of RalB activity in tumors (RalB [4]) | xenograft tumor growth inhibition [5] | cellular uptake [6]
1 | Cc1nn(C)c2c1C(c1ccc(C(F)(F)F)cc1)C(C#N)=C(N)O2 (stereo not drawn) [BQU57, 6-amino-1,3-dimethyl-4-(4-(trifluoromethyl)phenyl)-1,4-dihydropyrano[2,3-c]pyrazole-5-carbonitrile] | inhibited | inhibited | significant inhibition | significant inhibition | dose-dependent growth inhibition effects were observed; also recorded: inhibited xenograft tumor growth | readily get into cells
2 | COc1ccc(OC)c(C2C(C#N)=C(N)Oc3n[nH]c(-c4ccc5ccccc5c4)c32)c1 (stereo not drawn) [RBC8] | inhibited | inhibited | significant inhibition | significant inhibition | inhibited xenograft tumor growth | readily get into cells
